Here are results for 35 compounds from US8815882B2, “Pyrazole aminopyrimidine derivatives as LRRK2 modulators” (Genentech, Inc., priority 2010, dated 2014).

One may read the Ki as the dissociation constant of the complex between target and ligand, obtained from inhibition or displacement.

T1 sequence (Q5S007 whole entry G2019S): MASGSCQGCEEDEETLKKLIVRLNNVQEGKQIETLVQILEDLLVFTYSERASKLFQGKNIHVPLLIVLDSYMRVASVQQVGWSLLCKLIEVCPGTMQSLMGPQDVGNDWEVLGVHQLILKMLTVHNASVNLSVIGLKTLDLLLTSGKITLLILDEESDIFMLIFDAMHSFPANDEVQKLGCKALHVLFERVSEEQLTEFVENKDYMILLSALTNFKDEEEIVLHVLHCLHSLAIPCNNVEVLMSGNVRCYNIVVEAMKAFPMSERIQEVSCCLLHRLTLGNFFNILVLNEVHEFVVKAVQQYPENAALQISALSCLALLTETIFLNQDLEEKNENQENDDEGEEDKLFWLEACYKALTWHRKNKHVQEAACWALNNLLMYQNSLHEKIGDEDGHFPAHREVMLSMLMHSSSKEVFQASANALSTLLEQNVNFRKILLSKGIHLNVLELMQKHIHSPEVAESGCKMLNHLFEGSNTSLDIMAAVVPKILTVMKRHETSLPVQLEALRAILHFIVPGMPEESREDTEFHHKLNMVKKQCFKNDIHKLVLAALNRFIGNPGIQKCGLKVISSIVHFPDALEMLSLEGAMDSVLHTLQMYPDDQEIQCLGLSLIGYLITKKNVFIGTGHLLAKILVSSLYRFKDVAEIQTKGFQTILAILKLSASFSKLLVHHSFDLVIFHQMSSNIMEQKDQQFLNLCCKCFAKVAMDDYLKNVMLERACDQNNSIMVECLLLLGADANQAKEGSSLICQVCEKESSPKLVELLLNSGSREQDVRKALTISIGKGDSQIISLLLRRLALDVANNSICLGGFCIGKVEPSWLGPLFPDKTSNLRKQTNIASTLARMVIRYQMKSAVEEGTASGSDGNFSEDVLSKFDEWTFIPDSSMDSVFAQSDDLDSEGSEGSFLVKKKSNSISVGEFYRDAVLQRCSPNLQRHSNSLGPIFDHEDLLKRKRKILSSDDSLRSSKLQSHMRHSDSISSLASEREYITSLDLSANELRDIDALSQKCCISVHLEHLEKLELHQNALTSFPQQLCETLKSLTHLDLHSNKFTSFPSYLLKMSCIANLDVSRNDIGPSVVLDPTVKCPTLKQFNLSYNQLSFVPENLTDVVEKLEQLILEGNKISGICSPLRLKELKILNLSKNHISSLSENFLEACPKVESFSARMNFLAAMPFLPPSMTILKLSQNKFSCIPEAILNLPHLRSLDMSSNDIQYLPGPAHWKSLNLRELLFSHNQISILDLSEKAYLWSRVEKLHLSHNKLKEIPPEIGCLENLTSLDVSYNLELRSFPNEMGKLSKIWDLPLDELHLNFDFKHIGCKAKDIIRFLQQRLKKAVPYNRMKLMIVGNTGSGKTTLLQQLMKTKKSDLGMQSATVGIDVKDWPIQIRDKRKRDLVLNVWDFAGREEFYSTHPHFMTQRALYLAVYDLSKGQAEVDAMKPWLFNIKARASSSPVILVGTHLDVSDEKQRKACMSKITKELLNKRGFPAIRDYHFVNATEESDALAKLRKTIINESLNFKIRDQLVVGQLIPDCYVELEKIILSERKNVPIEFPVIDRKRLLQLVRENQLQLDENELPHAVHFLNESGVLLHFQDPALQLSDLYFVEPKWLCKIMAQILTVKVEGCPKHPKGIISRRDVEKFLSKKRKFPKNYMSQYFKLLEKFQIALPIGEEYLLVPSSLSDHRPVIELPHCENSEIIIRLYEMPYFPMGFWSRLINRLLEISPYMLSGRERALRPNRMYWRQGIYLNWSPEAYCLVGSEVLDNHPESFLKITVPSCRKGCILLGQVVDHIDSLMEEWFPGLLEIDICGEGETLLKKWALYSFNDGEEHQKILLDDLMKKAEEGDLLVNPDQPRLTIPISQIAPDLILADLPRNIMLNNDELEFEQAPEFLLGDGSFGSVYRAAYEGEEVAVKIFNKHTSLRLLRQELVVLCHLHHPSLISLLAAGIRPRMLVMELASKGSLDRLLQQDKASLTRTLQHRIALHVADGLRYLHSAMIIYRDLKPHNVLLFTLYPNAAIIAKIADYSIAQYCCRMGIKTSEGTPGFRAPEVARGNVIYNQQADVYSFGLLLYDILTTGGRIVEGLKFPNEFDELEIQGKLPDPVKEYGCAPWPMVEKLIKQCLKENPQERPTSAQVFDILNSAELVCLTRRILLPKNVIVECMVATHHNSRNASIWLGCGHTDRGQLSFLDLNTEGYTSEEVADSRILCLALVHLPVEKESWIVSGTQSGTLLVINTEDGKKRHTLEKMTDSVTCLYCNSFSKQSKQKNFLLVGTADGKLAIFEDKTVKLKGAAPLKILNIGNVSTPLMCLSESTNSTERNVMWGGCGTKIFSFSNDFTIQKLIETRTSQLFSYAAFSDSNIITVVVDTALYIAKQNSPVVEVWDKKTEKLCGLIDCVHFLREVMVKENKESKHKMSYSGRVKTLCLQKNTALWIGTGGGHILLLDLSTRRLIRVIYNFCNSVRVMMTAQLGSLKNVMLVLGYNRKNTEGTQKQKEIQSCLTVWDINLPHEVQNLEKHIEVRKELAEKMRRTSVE

The first experiment concerns the target T1, LRRK2 (Homo sapiens, UniProt Q5S007, G2019S).
T1 construct: purchased Invitrogen PV4882 (lot 567054A)
Put plainly: In Vitro LRRK2 Assay (LabChip 3000, fluorescently-labeled peptide substrate, ATP). The format is biochemical. The note with it: Table 9; LRRK2 Ki (micromolar); read-out: LRRK2 Ki (KI). The method, boiled down: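 Read-out was LabChip capillary electrophoresis, resolving phospho- from non-phospho-peptide by fluorescence intensity. The kinase reaction combined enzyme, ATP, test compound and labeled peptide (4 μM working dilution) for 2 h in darkness before stop solution. Values were reported as Ki, from a tight-binding model with Et, S and Km, or as IC50 or percent inhibition.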
Regarding `CNc1nc(Nc2cn(-c3ccccn3)nc2C)ncc1C#N` [Example 370, 2-(3-methyl-1-(pyridin-2-yl)-1H-pyrazol-4-ylamino)-4-(methylamino) pyrimidine-5-carbonitrile], the Ki was determined as 41.5 nM.

Turning to `CNc1nc(Nc2cn(C(F)F)nc2C)ncc1C#N` [Example 365, 2-(1-(difluoromethyl)-3-methyl-1H-pyrazol-4-ylamino)-4-(methylamino) pyrimidine-5-carbonitrile], the Ki was determined as 35 nM.

For `Cc1c(Nc2ncc(C#N)c(OCC(F)F)n2)cnn1C` [Example 391, 4-(2,2-Difluoro-ethoxy)-2-(1,5-dimethyl-1H-pyrazol-4-ylamino)-pyrimidine-5-carbonitrile], the Ki came out at 211 nM.

The same experiment, now with this note: Table 10; LRRK2 Ki (micromolar); read-out: LRRK2 Ki (KI).
In the case of `CCNC(=O)C(C)(C)n1cc(Nc2ncc(C(F)(F)F)c(NC)n2)c(C)n1` [Example 440, N-Ethyl-2-[3-methyl-4-(4-methylamino-5-trifluoromethyl-pyrimidin-2-ylamino)-pyrazol-1-yl]-isobutyramide], the Ki worked out at 9.5 nM.

On to `CNc1nc(Nc2cnn([C@@H](C)C(=O)N(C)C)c2C)ncc1C(F)(F)F` [Example 414, (S)-N,N-dimethyl-2-(5-methyl-4-(4-(methylamino)-5-(trifluoromethyl)pyrimidin-2-ylamino)-1H-pyrazol-1-yl)propanamide], for which the Ki was determined as 30 nM.

Consider `CNc1nc(Nc2cnn(C(C)(C)C(=O)NCC3CC3)c2C)ncc1C(F)(F)F` [Example 426, N-(cyclopropylmethyl)-2-methyl-2-(5-methyl-4-(4-(methylamino)-5-(trifluoromethyl)pyrimidin-2-ylamino)-1H-pyrazol-1-yl)propanamide], for which the Ki worked out at 9 nM.

Still in this experiment, the particulars now being: read-out: LRRK2 Ki (KI), Table 7.
In the case of `COc1nc(Nc2cnn(-c3ccccc3)c2C)ncc1C(F)(F)F` [Example 78, (4-Methoxy-5-trifluoromethyl-pyrimidin-2-yl)-(5-methyl-1-phenyl-1H-pyrazol-4-yl)-amine], the Ki worked out at 38.1 nM.

Take `COc1nc(Nc2cn(-c3ccc(C#N)cc3)nc2C)ncc1Cl` [Example 68, 4-(4-(5-chloro-4-methoxy-pyrimidin-2-ylamino)-3-methyl-1H-pyrazol-1-yl)benzonitrile]: the Ki was 2.4 nM.

As for `COc1nc(Nc2cnn(C)c2C)ncc1Cl` [Example 12, 5-Chloro-N-(1,5-dimethyl-1H-pyrazol-4-yl)-4-methoxy-pyrimidin-2-amine], the Ki was 9.1 nM.

Turning to `COCCn1cc(Nc2ncc(Cl)c(OC)n2)c(C)n1` [Example 19, 5-Chloro-4-methoxy-N-(1-(2-methoxyethyl)-3-methyl-1H-pyrazol-4-yl)pyrimidin-2-amine], the Ki is 15 nM.

In the case of `CNc1nc(Nc2cc(C(C)C)nn2C)ncc1C(F)(F)F` [Example 38, N^2-(3-isopropyl-1-methyl-1H-pyrazol-5-yl)-N^4-methyl-5-(trifluoromethyl) pyrimidine-2,4-diamine], the Ki was found to be 12 nM.

`COc1nc(Nc2cnn(-c3ccc(C#N)cc3)c2C)ncc1Cl` [Example 83, 4-[4-(5-Chloro-4-methoxy-pyrimidin-2-ylamino)-5-methyl-pyrazol-1-yl]-benzonitrile]: the Ki was determined as 9 nM.

On to `COc1nc(Nc2cnn(C3CCOCC3)c2Cl)ncc1Cl` [Example 85, (5-Chloro-4-methoxy-pyrimidin-2-yl)-[5-chloro-1-(tetrahydro-pyran-4-yl)-1H-pyrazol-4-yl]-amine], for which the Ki is 6.6 nM.

Still in this experiment, the particulars now being: read-out: LRRK2 Ki (KI), Table 8.
As to `CCNc1nc(Nc2cn([C@H]3CCCN(C)C3)nc2C)ncc1C(F)(F)F` [Example 312, N4-Ethyl-N2-[3-methyl-1-((S)-1-methyl-piperidin-3-yl)-1H-pyrazol-4-yl]-5-trifluoromethyl-pyrimidine-2,4-diamine], the Ki was 15.6 nM.

On to `CNc1nc(Nc2cnn(C3CCN(C)CC3)c2C)ncc1C(F)(F)F` [Example 210, N4-methyl-N2-(5-methyl-1-(1-methylpiperidin-4-yl)-1H-pyrazol-4-yl)-5-(trifluoromethyl) pyrimidine-2,4-diamine], for which the inhibition constant Ki is 7.1 nM.

Regarding `CCNc1nc(Nc2cnn(-c3ccc(S(C)(=O)=O)cc3)c2C)ncc1C(F)(F)F` [Example 163, N4-ethyl-N2-(5-methyl-1-(4-(methylsulfonyl)phenyl)-1H-pyrazol-4-yl)-5-(trifluoromethyl) pyrimidine-2,4-diamine], the Ki was 0.3 nM.

`CNc1nc(Nc2cn(C3CCS(=O)(=O)CC3)nc2C)ncc1C(F)(F)F` [Example 273, N2-[1-(1,1-Dioxo-hexahydro-1$1%6&- thiopyran-4-yl)-3-methyl-1H-pyrazol-4-yl]-N4-mcthyl-5-trifluoromethyl-pyrimidine-2,4-diamine]: the Ki worked out at 37 nM.

Consider `CNc1nc(Nc2cn(-c3ccc(F)cc3)nc2C)ncc1Br` [Example 108, 5-bromo-N2-(1-(4-fluorophenyl)-3-methyl-1H-pyrazol-4-yl)-N4-methylpyrimidine-2,4-diamine], for which the Ki is 0.3 nM.

For the compound `CNc1nc(Nc2cn(C(F)F)nc2C)ncc1Br` [Example 256, 5-Bromo-N2-(1-difluoromethyl-3-methyl-1H-pyrazol-4-yl)-N4-methyl-pyrimidine-2,4-diamine], the Ki came to 2.2 nM.

With `CCCn1ncc(Nc2ncc(C(F)(F)F)c(NC)n2)c1C` [Example 119, N4-methyl-N2-(5-methyl-1-propyl-1H-pyrazol-4-yl)-5-(trifluoromethyl) pyrimidine-2,4-diamine], the Ki is 5.6 nM.

As for `CCNc1nc(Nc2cn(C3CCN(C4COC4)CC3F)nc2C)ncc1C(F)(F)F` (centres unmarked) [Example 319, N4-Ethyl-N2-[1-(3-fluoro-1-oxetan-3-yl-piperidin-4-yl)-3-methyl-1H-pyrazol-4-yl]-5-trifluoromethyl-pyrimidine-2,4-diamine], the Ki is 0.3 nM.

Turning to `CNc1nc(Nc2cn(CC(C)(C)C#N)nc2Cl)ncc1C(F)(F)F` [Example 326, 3-[3-Chloro-4-(4-methylamino-5-trifluoromethyl-pyrimidin-2-ylamino)-pyrazol-1-yl]-2,2-dimethyl-propionitrile], the Ki was 8.2 nM.

Consider `CNc1nc(Nc2cnn(Cc3cnccn3)c2C)ncc1C(F)(F)F` [Example 316, N4-Methyl-N2-(5-methyl-1-pyrazin-2-ylmethyl-1H-pyrazol-4-yl)-5-trifluoromethyl-pyrimidine-2,4-diamine], for which the Ki was 2.6 nM.

Regarding `CNc1nc(Nc2cn(C3CCN(CCF)CC3)nc2C)ncc1C(F)(F)F` [Example 285, N2-{1-[1-(2-Fluoro-ethyl)-piperidin-4-yl]-3-methyl-1H-pyrazol-4-yl}-N4-methyl-5-trifluoromethyl-pyrimidine-2,4-diamine], the Ki was found to be 28.3 nM.

For the compound `CCNc1nc(Nc2cnn(C3CCN(C(=O)C(C)C)CC3)c2C)ncc1C(F)(F)F` [Example 267, 1-{4-[4-(4-Ethylamino-5-trifluoromethyl-pyrimidin-2-ylamino)-5-methyl-pyrazol-1-yl]-piperidin-1-yl}-2-methyl-propan-1-one], the Ki is 0.8 nM.

As for `CNc1nc(Nc2cnn(C3CC3)c2Cl)ncc1C(F)(F)F` [Example 145, N2-(5-chloro-1-cyclopropyl-1H-pyrazol-4-yl)-N4-methyl-5-(trifluoromethyl) pyrimidine-2,4-diamine], the Ki is 1.7 nM.

As to `CNc1nc(Nc2cnn(C3CCN(CCF)CC3)c2C)ncc1C(F)(F)F` [Example 284, N2-{1-[1-(2-Fluoro-ethyl)-piperidin-4-yl]-5-methyl-1H-pyrazol-4-yl}-N4-methyl-5-trifluoromethyl-pyrimidine-2,4-diamine], the Ki came out at 4.2 nM.

On to `CCNc1nc(Nc2cn(C3CCN(C)CC3)nc2C)ncc1C(F)(F)F` [Example 208, N4-ethyl-N2-(3-methyl-1-(1-methylpiperidin-4-yl)-1H-pyrazol-4-yl)-5-(trifluoromethyl) pyrimidine-2,4-diamine], for which the Ki amounted to 10.2 nM.

For `CNc1nc(Nc2cn(C(C)(C)c3ccnn3C)nc2C)ncc1C(F)(F)F` [Example 344, N4-methyl-N2-(3-methyl-1-(2-(1-methyl-1H-pyrazol-5-yl)propan-2-yl)-1H-pyrazol-4-yl)-5-(trifluoromethyl) pyrimidine-2,4-diamine], the Ki stood at 1.4 nM.

In the case of `CNc1nc(Nc2cn(C)nc2C2CC2)ncc1C(F)(F)F` [Example 177, N2-(3-cyclopropyl-1-methyl-1H-pyrazol-4-yl)-N4-methyl-5-(trifluoromethyl) pyrimidine-2,4-diamine], the Ki was 6.7 nM.

Take `CNc1nc(Nc2cnn(C)c2NC)ncc1C(F)(F)F` [Example 194, N4-methyl-N2-(1-methyl-5-(methylamino)-1H-pyrazol-4-yl)-5-(trifluoromethyl) pyrimidine-2,4-diamine]: the Ki is 52.2 nM.

With `CNc1nc(Nc2cnn(CC(C)(C)C#N)c2Cl)ncc1C(F)(F)F` [Example 313, 3-[5-Chloro-4-(4-methylamino-5-trifluoromethyl-pyrimidin-2-ylamino)-pyrazol-1-yl]-2,2-dimethyl-propionitrile], the Ki is 1.7 nM.

As for `CCNc1nc(Nc2cn(C3COC3)nc2C)ncc1C(F)(F)F` [Example 97, N4-ethyl-N2-(3-methyl-1-(oxetan-3-yl)-1H-pyrazol-4-yl)-5-(trifluoromethyl) pyrimidine-2,4-diamine], the Ki came out at 1.6 nM.

Regarding `CNc1nc(Nc2cnn([C@@H]3CCN(C4COC4)C3)c2C)ncc1C(F)(F)F` [Example 211, (R)-N4-methyl-N2-(5-methyl-1-(1-(oxetan-3-yl)pyrrolidin-3-yl)-1H-pyrazol-4-yl)-5-(trifluoromethyl) pyrimidine-2,4-diamine], the Ki is 3.3 nM.

The same experiment, now with this note: read-out: LRRK2 Ki given in the example.
As for `CNc1nc(Nc2cc(C(=O)N3CCOCC3)nn2C)ncc1Cl` [Example 393, (5-(5-chloro-4-(methylamino)pyrimidin-2-ylamino)-1-methyl-1H-pyrazol-3-yl)(morpholino)methanone], the Ki came out at 160 nM.
